The values that follow are results of earlier work, collected in patent US20200038317A1, “EXTENDED RELEASE, ABUSE DETERRENT PHARMACEUTICAL COMPOSITIONS” (SpecGX LLC, priority 2012, published 2020).

For this series the following is noted: at 25° C.

With `O=C(O)CC(O)(CC(=O)O)C(=O)O` [citric acid], the “relative humidity at which the plasticizer deliquesces” value was “about 75 % relative humidity”.
